Assay results published in ChEMBL document CHEMBL1148259, “2,4-Bis(octadecanoylamino)benzenesulfonic acid sodium salt as a novel scavenger receptor inhibitor with low molecular weight” (Bioorg Med Chem Lett, 2004).

How the values were obtained:
[1] = target: T1, Macrophage scavenger receptor types I and II (Mus musculus) (UniProt P30204); test: Percent inhibition of DiI-acetyl-LDL binding to scavenger receptor of mouse peritoneal macrophages at 100 uM; type: functional
T1 sequence (whole entry): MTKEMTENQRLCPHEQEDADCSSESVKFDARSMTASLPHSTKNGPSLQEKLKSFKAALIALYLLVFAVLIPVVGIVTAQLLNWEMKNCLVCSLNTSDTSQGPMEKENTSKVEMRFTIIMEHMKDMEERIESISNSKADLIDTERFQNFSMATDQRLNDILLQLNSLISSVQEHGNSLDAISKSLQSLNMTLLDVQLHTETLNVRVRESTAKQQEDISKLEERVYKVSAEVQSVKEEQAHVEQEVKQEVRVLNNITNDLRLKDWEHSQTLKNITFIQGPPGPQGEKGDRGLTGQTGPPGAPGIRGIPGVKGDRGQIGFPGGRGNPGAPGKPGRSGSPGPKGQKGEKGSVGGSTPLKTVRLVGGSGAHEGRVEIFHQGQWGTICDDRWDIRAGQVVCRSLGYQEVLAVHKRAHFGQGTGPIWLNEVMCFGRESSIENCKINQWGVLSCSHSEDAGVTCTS

[2] = target: T1, Macrophage scavenger receptor types I and II (Mus musculus); test: Activity against acetyl-LDLbinding to scavenger receptor as percent inhibition of incorporation of DiI-acetyl-LDL into mouse peritoneal macrophages at 30 uM
[3] = target: T1, Macrophage scavenger receptor types I and II (Mus musculus); test: Activity against acetyl-LDLbinding to scavenger receptor as percent inhibition of incorporation of DiI-acetyl-LDL into mouse peritoneal macrophages at 10 uM
[4] = target: T1, Macrophage scavenger receptor types I and II (Mus musculus); test: Inhibitory activity against [125I]acetyl-LDL binding to mouse peritoneal macrophage scavenger receptor at 10 uM
[5] = target: T1, Macrophage scavenger receptor types I and II (Mus musculus); test: Inhibitory activity against [125I]-acetyl-LDL binding to mouse peritoneal macrophage scavenger receptor at 100 uM
[6] = target: T1, Macrophage scavenger receptor types I and II (Mus musculus); test: Inhibitory activity against [125I]acetyl-LDL binding to mouse peritoneal macrophage scavenger receptor at 30 uM
[7] = target: T2, Macrophage scavenger receptor types I and II (Mus musculus, UniProt P30204); test: Inhibitory activity against [125I]acetyl-LDL binding to mouse peritoneal macrophage scavenger receptor
T2 sequence (P30204 whole entry): T1 sequence (whole entry)

Compound | inhibition [1] | inhibition [2] | also measured
CCCCCCCCCCCCCCCCCC(=O)Nc1cc(NC(=O)CCCCCCCCCCCCCCCCC)cc(S(=O)(=O)O)c1 | 71.2% | 46.2% | inhibition [3]: 18.5%
CCCCCCCCCCCCCCCCCC(=O)Nc1ccc(COS(=O)(=O)O)cc1NC(=O)CCCCCCCCCCCCCCCC | < 10% | – | –
CCCCCCCCCCCCCC(=O)Nc1ccc(S(=O)(=O)O)c(NC(=O)CCCCCCCCCCCCC)c1 | 66.6% | 48% | –
CCCCCCCCCCCCCCCCCC(=O)NC(COS(=O)(=O)O)C(=O)NCCCCCCCCCCCCCC (stereo not drawn) | 61.4% | 43.8% | inhibition [4]: 6.6%; inhibition [5]: 81.1%; inhibition [6]: 41.8%; inhibition [3]: 20.5%
CCCCCCCCCCCCCCCCCCCCCC(=O)Nc1ccc(S(=O)(=O)O)c(NC(=O)CCCCCCCCCCCCCCCCCCCCC)c1 | 85.7% | 48% | –
CCCCCCCCCCCCCCCCCC(=O)Nc1ccc(S(=O)(=O)O)c(NC(=O)CCCCCCCCCCCCCCCCC)c1 | 84.6% | 72.5% | IC50 [7]: 2000 nM; inhibition [3]: 57%
CCCCCCCCCCCCCCCCCC(=O)Nc1ccc(NC(=O)CCCCCCCCCCCCCCCCC)c(S(=O)(=O)O)c1 | 32.1% | – | –
CCCCCCCCCCCCCCCCCC(=O)Nc1ccc(S(=O)(=O)O)cc1 | < 10% | – | –
CCCCCCCCCC(=O)Nc1ccc(S(=O)(=O)O)c(NC(=O)CCCCCCCCC)c1 | < 10% | – | –
CCCCCCCCCCCCCCCCCC(=O)Nc1ccc(C(=O)O)c(NC(=O)CCCCCCCCCCCCCCCCC)c1 | < 10% | – | –
CCCCCCCCCCCCCCCCCC(=O)N1C[C@H](OS(=O)(=O)O)C[C@H]1C(=O)NCCCCCCCCCCCCCC | 23.7% | – | –
